Species on record: Rattus norvegicus
Test: Open TG-GATES - Regimen: Single
Assay type: toxicity, organism-based, Sprague-Dawley
Set-up: regimen Single, gender Male, age 6 weeks
Conditions: in vivo, po, 10 mg/kg, route gavage, dose level Middle; for APTT / Bas / Eos / Fbg / Hb / Ht / Lym / MCH / MCHC / MCV / Mono / Neu / PT / Plat / RBC / Ret / WBC: tissue Blood; for KIDNEY_L / KIDNEY_R / KIDNEY_TOTAL: tissue Kidney; for LIVER: tissue Liver; for A/G / ALP / ALT / AST / BUN / CRE / Ca / Cl / DBIL / GLC / IP / K / LDH / Na / PL / RALB / TBIL / TC / TG / TP / gamma-GTP: tissue Plasma

`CN(C)CCC(c1ccc(Cl)cc1)c1ccccn1` (configuration not stated) [CHLORPHENIRAMINE] was tested, and the TERMINAL_BW (3 h) was 196.8 g, the APTT (3 h) was 19.7 s and the Bas (3 h) was 0%. For the same compound, the Eos (3 h) was 0.4%, the Fbg (3 h) was 295.8 mg/dL and the Hb (3 h) was 13.5 g/dL. The Ht (3 h) was 42%, the Lym (3 h) was 77.4% and the MCH (3 h) was 21.3 pg. The MCHC (3 h) was 32.1%, the MCV (3 h) was 66.1 fL and the Mono (3 h) was 3%. For the same compound, the Neu (3 h) was 18.2%, the PT (3 h) was 14.7 s and the Plat (3 h) was 126.4 x10_4/uL. For the same compound, the RBC (3 h) was 634 x10_4/ul, the Ret (3 h) was 9.7% and the WBC (3 h) was 73.4 x10_2/uL. For the same compound, the KIDNEY_L (3 h) was 0.8 g, the KIDNEY_R (3 h) was 0.8 g and the KIDNEY_TOTAL (3 h) was 1.6 g. It also gave an LIVER (3 h) of 9 g, an A/G (3 h) of 0.9 and an ALP (3 h) of 1551 IU/L. It also gave an ALT (3 h) of 47.4 IU/L, an AST (3 h) of 74.6 IU/L and a BUN (3 h) of 9.2 mg/dL. The CRE (3 h) was 0.2 mg/dL, the Ca (3 h) was 10.9 mg/dL and the Cl (3 h) was 107.6 meq/L. The DBIL (3 h) was 0.006 mg/dL, the GLC (3 h) was 180.2 mg/dL and the IP (3 h) was 10.3 mg/dL. For the same compound, the K (3 h) was 4.1 meq/L, the LDH (3 h) was 200.6 IU/L and the Na (3 h) was 144.6 meq/L. For the same compound, the PL (3 h) was 156 mg/dL, the RALB (3 h) was 2.6 g/dL and the TBIL (3 h) was 0.046 mg/dL. It also gave a TC (3 h) of 84.6 mg/dL, a TG (3 h) of 75 mg/dL and a TP (3 h) of 5.5 g/dL. The gamma-GTP (3 h) was 1 IU/L, the TERMINAL_BW (6 h) was 195.1 g and the APTT (6 h) was 21.5 s. It also gave a Bas (6 h) of 0%, an Eos (6 h) of 1% and a Fbg (6 h) of 297 mg/dL. It also gave a Hb (6 h) of 13.2 g/dL, a Ht (6 h) of 41% and a Lym (6 h) of 74.4%. For the same compound, the MCH (6 h) was 20.6 pg, the MCHC (6 h) was 32.2% and the MCV (6 h) was 64 fL. The Mono (6 h) was 3%, the Neu (6 h) was 20.8% and the PT (6 h) was 14.9 s. The Plat (6 h) was 129.3 x10_4/uL, the RBC (6 h) was 641.2 x10_4/ul and the Ret (6 h) was 8.8%. For the same compound, the WBC (6 h) was 74.4 x10_2/uL, the KIDNEY_L (6 h) was 0.8 g and the KIDNEY_R (6 h) was 0.9 g. It also gave a KIDNEY_TOTAL (6 h) of 1.7 g, an LIVER (6 h) of 8.4 g and an A/G (6 h) of 0.9. The ALP (6 h) was 1438.8 IU/L, the ALT (6 h) was 42.2 IU/L and the AST (6 h) was 73.4 IU/L. It also gave a BUN (6 h) of 7.8 mg/dL, a CRE (6 h) of 0.2 mg/dL and a Ca (6 h) of 10.5 mg/dL. The Cl (6 h) was 107 meq/L, the DBIL (6 h) was 0.006 mg/dL and the GLC (6 h) was 177.4 mg/dL. The IP (6 h) was 10.1 mg/dL, the K (6 h) was 4.2 meq/L and the LDH (6 h) was 176 IU/L. It also gave a Na (6 h) of 142.6 meq/L, a PL (6 h) of 140.6 mg/dL and an RALB (6 h) of 2.5 g/dL. The TBIL (6 h) was 0.04 mg/dL, the TC (6 h) was 80.8 mg/dL and the TG (6 h) was 42.6 mg/dL. The TP (6 h) was 5.5 g/dL, the gamma-GTP (6 h) was 1.6 IU/L and the TERMINAL_BW (9 h) was 192.7 g. For the same compound, the APTT (9 h) was 17.7 s, the Bas (9 h) was 0% and the Eos (9 h) was 1%. For the same compound, the Fbg (9 h) was 292.6 mg/dL, the Hb (9 h) was 13.3 g/dL and the Ht (9 h) was 41.3%. For the same compound, the Lym (9 h) was 76.2%, the MCH (9 h) was 20.8 pg and the MCHC (9 h) was 32.3%. The MCV (9 h) was 64.3 fL, the Mono (9 h) was 1.8% and the Neu (9 h) was 20.6%. The PT (9 h) was 15.1 s, the Plat (9 h) was 123.4 x10_4/uL and the RBC (9 h) was 643.8 x10_4/ul. It also gave a Ret (9 h) of 8.5%, a WBC (9 h) of 67.8 x10_2/uL and a KIDNEY_L (9 h) of 0.9 g. For the same compound, the KIDNEY_R (9 h) was 0.9 g, the KIDNEY_TOTAL (9 h) was 1.8 g and the LIVER (9 h) was 7.5 g. The A/G (9 h) was 0.9, the ALP (9 h) was 1406.4 IU/L and the ALT (9 h) was 35.2 IU/L. The AST (9 h) was 69 IU/L, the BUN (9 h) was 7.2 mg/dL and the CRE (9 h) was 0.1 mg/dL. For the same compound, the Ca (9 h) was 10.4 mg/dL, the Cl (9 h) was 105.6 meq/L and the DBIL (9 h) was 0.008 mg/dL. The GLC (9 h) was 162 mg/dL, the IP (9 h) was 10.4 mg/dL and the K (9 h) was 4 meq/L. The LDH (9 h) was 145.2 IU/L, the Na (9 h) was 142.4 meq/L and the PL (9 h) was 131.2 mg/dL. For the same compound, the RALB (9 h) was 2.5 g/dL, the TBIL (9 h) was 0.054 mg/dL and the TC (9 h) was 80 mg/dL. The TG (9 h) was 37.8 mg/dL, the TP (9 h) was 5.5 g/dL and the gamma-GTP (9 h) was 1.4 IU/L. It also gave a TERMINAL_BW (24 h) of 209.2 g, an APTT (24 h) of 21.6 s and a Bas (24 h) of 0%. It also gave an Eos (24 h) of 0.8%, a Fbg (24 h) of 287.6 mg/dL and a Hb (24 h) of 12.5 g/dL. The Ht (24 h) was 38.8%, the Lym (24 h) was 76.4% and the MCH (24 h) was 20.7 pg. The MCHC (24 h) was 32.4%, the MCV (24 h) was 63.9 fL and the Mono (24 h) was 3.8%. It also gave a Neu (24 h) of 18.2%, a PT (24 h) of 14.8 s and a Plat (24 h) of 118.2 x10_4/uL. The RBC (24 h) was 606.6 x10_4/ul, the Ret (24 h) was 8.5% and the WBC (24 h) was 79.8 x10_2/uL. It also gave a KIDNEY_L (24 h) of 0.9 g, a KIDNEY_R (24 h) of 0.9 g and a KIDNEY_TOTAL (24 h) of 1.7 g. It also gave an LIVER (24 h) of 9 g, an A/G (24 h) of 0.9 and an ALP (24 h) of 1569.6 IU/L. It also gave an ALT (24 h) of 46.4 IU/L, an AST (24 h) of 77.8 IU/L and a BUN (24 h) of 14.8 mg/dL. It also gave a CRE (24 h) of 0.2 mg/dL, a Ca (24 h) of 10.8 mg/dL and a Cl (24 h) of 106.6 meq/L. The DBIL (24 h) was 0.01 mg/dL, the GLC (24 h) was 184.2 mg/dL and the IP (24 h) was 8.2 mg/dL. It also gave a K (24 h) of 4.3 meq/L, an LDH (24 h) of 132.2 IU/L and a Na (24 h) of 142.8 meq/L. The PL (24 h) was 142.8 mg/dL, the RALB (24 h) was 2.6 g/dL and the TBIL (24 h) was 0.04 mg/dL. It also gave a TC (24 h) of 76.4 mg/dL, a TG (24 h) of 82.6 mg/dL and a TP (24 h) of 5.5 g/dL. For the same compound, the gamma-GTP (24 h) was 1.2 IU/L.
